In patent US20090264425A1, “CHEMICAL COMPOUNDS” (PFIZER LIMITED, priority 2004, published 2009):

Target: T1, HIV-1 reverse transcriptase (Human immunodeficiency virus type 1 group M subtype B, UniProt P04585)
T1 construct: purified recombinant HIV-1 reverse transcriptase (RT, EC, 2.7.7.49); made in house; host or cells: Escherichia coli
Experiment: Inhibition of HIV-1 reverse transcriptase enzyme ([3H]-Flashplate enzyme assay, 384-well)
Type: biochemical
Conditions: purified recombinant HIV-1 RT expressed in Escherichia Coli; 5% final DMSO
From the text: The activity of the compounds of the invention as reverse transcriptase inhibitors may be measured using the following assay.
Inhibition of HIV-1 Reverse Transcriptase Enzyme
The reverse transcriptase activity of the compounds of the invention may be assayed as follows. Using the purified recombinant HIV-1 reverse transcriptase (RT, EC, 2.7.7.49) obtained by expression in Escherichia Coli, a 384-well plate assay system was established for assaying a large number of samples using the [3H]-Flashplate enzyme assay system (NEN-SMP 410A) following the manufacturer's recommendations. The compounds were dissolved in 100% DMSO and diluted with the appropriate buffer to a 5% final DMSO concentration. The inhibitory activity was expressed in percent inhibition relative to the DMSO control.

SMILES | IC50
N#Cc1cc(Cl)cc(Oc2cc(Cl)ccc2OCC(=O)N2CCCc3cc(S(N)(=O)=O)ccc32)c1 [Example 1, 1-{[4-Chloro-2-(3-chloro-5-cyanophenoxy)phenoxy]acetyl}-1,2,3,4-tetrahydroquinoline-6-sulfonamide] | 26.1 nM
N#Cc1cc(Cl)cc(Oc2cc(Cl)ccc2OCC(=O)Nc2ccc(S(N)(=O)=O)cc2Cl)c1 [Example 9, N-[4-(Aminosulfonyl)-2-chlorophenyl]-2-[4-chloro-2-(3-chloro-5-cyanophenoxy)phenoxy]acetamide] | 6 nM
N#Cc1cc(Cl)cc(Oc2cc(Cl)ccc2OCC(=O)N2CCc3ccc(S(=O)(=O)N4CCOCC4)cc3C2)c1 [Example 16] | 541 nM
Cc1cc(CN(C)C(=O)COc2cc(Cl)ccc2Oc2cc(Cl)cc(C#N)c2)on1 [Example 25] | 2180 nM
Cc1nc(S(N)(=O)=O)ccc1NC(=O)COc1ccc(Cl)cc1Sc1cc(Cl)cc(C#N)c1 [Example 46, N-[6-(Aminosulfonyl)-2-methylpyridin-3-yl]-2-{4-chloro-2-[(3-chloro-5-cyanophenyl)thio]phenoxy}acetamide] | 27.7 nM
Cc1cnccc1NC(=O)COc1cc(Cl)ccc1Oc1cc(Cl)cc(C#N)c1 [Example 50] | 5.68 nM
